The source of these data is patent US8969350B2, “Pharmaceutical product comprising a p38 kinase inhibitor and a second active ingredient” (Astrazeneca AB, priority 2008, dated 2015).

The test system of data set [1] is LPS stimulated TNFα production from human PBMC. Briefly: Inhibition of LPS-induced TNFα production in human peripheral blood mononuclear cells (FLISA). Conditions: Compound A alone, n=17, read-out: pIC50 for inhibition of LPS-induced TNFα production from human PBMC (converted). Type of data set: cell-based.
Procedure: After the pre-incubation period, the cells were then incubated with LPS (1 μg/mL) for 4 hr at 37° C. to induce TNFα production. The total assay volume was 200 μL. At the end of the incubation period, 25 μL of the culture supernatant was analysed to quantify the TNFα released using a Flourescence-linked immunosorbance assay (FLISA). Fluorescence levels were read on an FMAT plate reader. Inhibition curves were fitted using a 4-parameter logistic equation in a non-linear curve fitting routine and activity was expressed as pIC50.
For data set [2], the system named is guinea pig trachea. The data set is described as follows: Guinea-pig isolated tracheal ring, Protocol A: relaxation of methacholine pre-contracted rings. As to conditions: mean ± s.e. mean, n=4; for EC50: Cavia porcellus. As to the method: (§1) Guinea-pigs (300-600 g) were killed by cervical dislocation and the trachea removed. After clearing the adherent connective tissue, the trachea was cut into segments (2-3 cartilage rings in width) and suspended in 10 ml organ baths containing modified Krebs' solution (mM; NaCl, 90; NaHCO3, 45; KCl, 5; MgSO4.7H2O, 0.5; Na2HPO4.2H2O, 1; CaCl2, 2.25; glucose, 10; pH 7.4, gassed with 5% CO2, 95% O2 at 37° C.). The tracheal rings were attached to an isometric force transducer for the measurement of isometric tension. The tissues were washed and a force of 1 g was applied to each tissue.
(§2) Protocol A: The rings were pre-contracted with methacholine (1 μM) and a cumulative (0.3 nM-3 μM) isoprenaline concentration effect curve constructed. The rings were washed and either Compound A (4 nM) or vehicle was added. The rings were then contracted with a second concentration of methacholine (1 μM). Once the contraction had reached a plateau cumulative concentration response curves to Compound C (0.1 nM-1 μM), Compound E (1 nM-1 μM) or Compound H (0.1 nM-1 μM) were constructed. Data were collected using the ADInstruments chart4 software, the maximum tension generated at each concentration of agonist was recorded and the response expressed as percentage relaxation (mean±s.e.mean). The data was fitted to a four parameter logistic and a potency value (pEC50) generated (expressed as mean±s.e.mean). Protocol B: A cumulative concentration effect curve to methacholine (3 nM-30 μM) was constructed and then the tissue was washed. […] A second extended cumulative concentration response curve to methacholine was constructed (3 nM-1 mM). Data were collected using the ADInstruments chart4 software, the maximum tension generated at each concentration of agonist was recorded and the results were expressed as percentage of the maximum response measured in the first curve.

Data set [3] relates to guinea pig trachea. The data set is described as follows: Guinea-pig isolated tracheal ring, Protocol B: shift of methacholine concentration response curve (apparent pA2). Conditions: mean ± s.e. mean, n=4; for pA2 in the presence of Compound A: apparent pA2 vs methacholine in the presence of Compound A (4 nM); for pA2 value: apparent pA2 vs methacholine, compound alone, Schild plot slope of 1 assumed. As to the method:
as §1
as §2, with “Once the contraction had reached a plateau cumulative concentration response curves to Compound C (0.1 nM-1 μM), Compound E (1 nM-1 μM) or Compound H (0.1 nM-1 μM) were constructed.” left out

Data set [4] can be described thus: Water uptake by gravimetric vapour sorption (GVS). It is filed as physicochemical. Conditions: between RH of 0%-80%, as measured by GVS. The procedure: GVS profiles were measured using a Dynamic Vapour Sorption DVS-1 instrument. The solid sample ca. 1-5 mg was placed into a glass vessel and the weight of the sample was recorded during a dual cycle step method (40 to 90 to 0 to 90 to 0% relative humidity (RH), in steps of 10% RH).

[5] abbreviates: compound alone (vehicle), relaxation of rings contracted with methacholine 1 μM, read-out: pEC50 value (converted).

Counter-ions that a name gives are not always drawn. Like-named read-outs stand apart in the source and are kept apart here.

On to `CNCCOc1ccccc1C1(Nc2nccn(-c3cc(C(=O)NC4CC4)cc(F)c3C)c2=O)CC1` [Compound A, N-cyclopropyl-3-fluoro-4-methyl-5-[3-[[1-[2-[2-(methylamino)ethoxy]phenyl]cyclopropyl]amino]-2-oxo-pyrazin-1-yl]benzamide], for which the IC50 in data set [1] was 7.94 nM. As for `CCN(CC)CCN(CCNCCc1ccc(O)c2[nH]c(=O)sc12)C(=O)CCOCCc1cccc2ccccc12` [Compound C, N-[2-(diethylamino)ethyl]-N-(2-{[2-(4-hydroxy-2-oxo-2,3-dihydro-1,3-benzothiazol-7-yl)ethyl]amino}ethyl)-3-[2-(1-naphthyl)ethoxy]propanamide dihydrobromide], the EC50 in the data set with guinea pig trachea [2] (setting [5]) is 10 nM. The same compound yielded a pEC50 value in the data set with guinea pig trachea [2] (compound alone (vehicle), relaxation of rings contracted with methacholine 1 μM, dihydrobromide) of 8.0 ± 0.05. Turning to `O=C(O[C@H]1C[N+]2(CCCOc3ccccc3)CCC1CC2)C(O)(c1cccs1)c1cccs1` [Compound D, [(3R)-1-(3-phenoxypropyl)quinuclidin-1-ium-3-yl]2-hydroxy-2,2-bis(2-thienyl)acetate bromide, reference compound], in the data set with guinea pig trachea [3], the “pA2 in the presence of Compound A” value was determined as 10.5±0.07 and the pA2 value is on record as 10.7±0.09.

As for `CCc1cc2c(cc1CC)CC(NC[C@H](O)c1ccc(O)c3[nH]c(=O)ccc13)C2` [Compound E, 5-[(1R)-2-[(5,6-diethylindan-2-yl)amino]-1-hydroxy-ethyl]-8-hydroxy-1H-quinolin-2-one maleate, reference compound], the EC50 is 15.8 nM in the data set on guinea pig trachea [2] (setting [5]) and 20 nM in the data set on guinea pig trachea [2] (in the presence of Compound A (4 nM), rings contracted with methacholine 1 μM, read-out: pEC50 in the presence of Compound A (converted)). As for `O=C(CCNCCc1cccc(F)c1)N(CCNCCc1ccc(O)c2[nH]c(=O)sc12)C1CCCCC1` [Compound H, N-Cyclohexyl-N^3-[2-(3-fluorophenyl)ethyl]-N-(2-{[2-(4-hydroxy-2-oxo-2,3-dihydro-1,3-benzothiazol-7-yl)ethyl]amino}ethyl)-β-alaninamide di-D-mandelate], the EC50 with guinea pig trachea [2] (setting [5]) is 0.631 nM. The “pEC50 in the presence of Compound A” value in the data set on guinea pig trachea [2] (in the presence of Compound A (4 nM), rings contracted with methacholine 1 μM) was found to be 9.2±0.10. Take `C[C@@](C(=O)O[C@H]1C[N+]2(CCc3ccc(F)cc3)CCC1CC2)(c1ccccc1)N1CCCCC1` [Compound J, (R)-1-[2-(4-fluoro-phenyl)-ethyl]-3-((S)-2-phenyl-2-piperidin-1-yl-propionyloxy)-1-azonia-bicyclo[2.2.2]octane 4-methylbenzenesulfonate]: in the data set on guinea pig trachea [3] (4-methylbenzenesulfonate), the “pA2 in the presence of Compound A” value is 10.1±0.10 and the pA2 value is given as 9.9±0.12. Take `O=C(C[N+]12CCC(CC1)[C@@H](OC(=O)C1(c3ccccc3)CCCCCC1)C2)Nc1ccccn1` [Compound K, ((R)-3-(1-phenyl-cycloheptanecarbonyloxy)-1-(pyridin-2-ylcarbamoylmethyl)-1-azonia-bicyclo[2.2.2]octane bromide]: in the data set with guinea pig trachea [3], the “pA2 in the presence of Compound A” value amounted to 9.9±0.15 and the pA2 value turned out to be 9.9±0.10. Turning to `C[N+]1(C)[C@@H]2C[C@@H](OC(=O)C(O)(c3cccs3)c3cccs3)C[C@H]1[C@@H]1O[C@@H]12` [Compound M, (1R,2R,4S,5S,7S)-7-{[hydroxy(dithiophen-2-yl)acetyl]oxy}-9,9-dimethy-3-oxa-9-azoniatricyclo[3.3.1.0~2,4~]nonane bromide, reference compound], the “pA2 in the presence of Compound A” value in the data set on guinea pig trachea [3] is on record as 12.0±0.08. Take `CNCCOc1ccccc1C1(Nc2nccn(-c3cc(C(=O)NC4CC4)cc(F)c3C)c2=O)CC1` [preparation 1 crystalline form A, N-Cyclopropyl-3-fluoro-4-methyl-5-[3-[[1-[2-[2-(methylamino)ethoxy]phenyl]cyclopropyl]amino]-2-oxo-1(2H)-pyrazinyl]-benzamide Crystalline Form A]: in data set [4], the water uptake is listed as 0.4%.
